The subject of one series is HepG2 cells. Description: HepG2 cytotoxicity, TiterGlo ATP luminescence, galactose medium. The class given is cell-based, human. As to the method: (§1) […]. Of course, enhanced potency is desirable only if unaccompanied by enhanced toxicity. […] […]. The incubation period for these experiments was 48 hours.
The subject of series [1] is P. falciparum D6 strain (drug sensitive). In words: In vitro antiplasmodial activity, SYBR Green I assay, D6 strain. It is filed as cell-based, Plasmodium falciparum. The settings on record: for IC50: Plasmodium falciparum, read-out: P. falciparum IC50 values, nM D6. As to the method:
(§2) Rationale for Synthesis of a 3-Biaryl Version of ELQ-300. […] All of this information is stored in a database with information relating to chemical structure, physical chemical properties, cross resistance patterns, mammalian cell cytotoxicity, enzyme inhibitor profiles, and synthesis details. […] We employed the SyBr Green assay and the plates were incubated for 72 hours before harvesting^18, 19. […] Stock solutions were freshly prepared in DMSO.
(§3) Plasmodium falciparum Culture. Laboratory strains of P. falciparum were cultured in human erythrocytes by standard methods. The parasites were grown in culture medium with fresh human erythrocytes maintained at 2% hematocrit at 37° C. in low-oxygen conditions (5% O2, 5% CO2, […] balance N2). […] Cultures were maintained at less than 10% parasitemia by transfer of infected cells to fresh erythrocytes and culture medium every 3 or 4 days.
(§4) In vitro drug susceptibility assays. SYBR green I assay. In vitro antiplasmodial activity was assessed using a published SYBR Green I fluorescence-based method. The drugs were added to 96-well plates using 2-fold serial dilutions in complete medium. […] Asynchronous P. falciparum parasites were diluted with uninfected erythrocytes and added to the wells to give a final culture volume of 100 μl at 2% hematocrit and 0.2% parasitemia. […] The parasites were then lysed by adding 100 μl of SYBR green I lysis buffer containing 0.2 μl/ml SYBR green I dye (10,000×) in 20 mM Tris (pH 7.5), 5 mM EDTA, 0.008% (wt/vol) saponin, and 0.08% (vol/vol) Triton X-100. The plates were incubated at room temperature for an hour in the dark. […] If the IC50 value fell outside of the initial tested range then the range was adjusted up or down and the assay was repeated.

Series [2] concerns P. falciparum Dd2 strain (multidrug resistant). Description: microbe, parasite or virus in culture. The class given is cell-based, Plasmodium falciparum. Particulars: Plasmodium falciparum, DD2, 72 h, read-out: P. falciparum IC50 values, nM Dd2. As to the method: as §2, §3, §4
Series [3] has as its system P. falciparum Tm90-C2B (atovaquone-resistant clinical isolate). In words: In vitro antiplasmodial activity, SYBR Green I assay, Tm90-C2B. It is filed as cell-based. The settings on record: Plasmodium falciparum, read-out: P. falciparum IC50 values, nM Tm90-C2B. How it is done:
as §2, §3, §4

Series [4] deals with P. falciparum D1 clone (ELQ-300 resistant). In words: microbe, parasite or virus in culture. The class given is cell-based. The settings on record: Plasmodium falciparum, 72 h, read-out: P. falciparum IC50 values, nM D1.
Series [5] deals with P. yoelii (Kenya Strain) blood stage infection in mice. Description: 4-day Peters test against murine malaria. The class given is in vivo. Particulars: P. yoelii in mice, oral gavage in PEG400 on Days 1-4; prodrugs dosed on molar equivalency to parent drug. How it is done: On Day 5 a drop of blood was taken from the tail and a blood smear was prepared, fixed with methanol, and stained with Giemsa. The operator then examined the stained smear microscopically to determine percent parasitemia. Dosages of 0.0025, 0.005, 0.01, 0.03, 0.1, 0.3, 1.0 and 10 mg/kg/day were used for the experiment. […] In this model animals were inoculated exactly as for the 4-day test on Day 0 however drug was administered only on Day 1 while the operator made smears on Day 5 and again weekly thereafter for animals that remained aparasitemic. Animals that remained aparasitemic out to […] were scored as cures.
In Vivo Efficacy against Murine Malaria. The P. yoelii 4-day test monitors suppression of patent infection in female CF1 mice. The test began with the inoculation (iv) of parasitized erythrocytes (3.5×10^4/P. yoelli) (from a donor animal) on the first day of the experiment (D0). […] Initially the 3-biaryl-ELQs were tested at doses of 0.0025, 0.005, 0.01, 0.03, 0.1, 0.3, 1.0 and 10 mg/kg/day, including a vehicle-only (PEG400) control. After completion of drug treatment, a blood sample was collected (by pricking the tail vein) for determination of parasite burden beginning on the day after the final dose (D5). Percent parasitemia is assessed by direct microscopic analysis of Giemsa-stained blood smears. […] Animals with observable parasitemia following the experiment were euthanized; animals cleared of parasites from the bloodstream were observed daily with assessment of parasitemia performed weekly until day 30, at which point the animal(s) were scored as cured of infection. […] Non-linear regression analysis is used for objective determination of ED50's and ED90's from the accumulated data as well as the Non-Recrudescence Dose (NRD). The 4-day test protocol was reviewed and approved by the local IACUC board at the Portland VA Medical Center. Experiments were performed with 4 mice per group to ensure statistical accuracy.

The test system of series [6] is P. yoelii blood stage infection in mice. In words: In vivo single-dose cure against murine malaria. The settings on record: lowest single dose that cures all 4 mice; P. yoelii, dose on Day 1; prodrugs dosed on molar equivalency to parent drug. How it is done: Animals that remained aparasitemic out to […] were scored as cures.
In Vivo Single-Dose Efficacy against Murine Malaria. The effectiveness of selected 3-biarylELQs and prodrugs was assessed vs. the blood stage infection for single dose cures. Mice are infected iv with 3.5×10^4 P. yoelii infected RBCs as described for the 4-day test above. Drug administration occurred on the day after inoculation (Day 1). Test agents were dissolved in PEG-400 and administered ig once. On the 5th day blood films were prepared and % parasitemia was assessed. Animals remaining parasite-free for 30 days after drug administration were considered cured. The initial dosing range was: 0.5, 1, 2.5, 5, 10 mg/kg, including a control. Experiments were performed with 4 mice per group to ensure statistical accuracy. The reported parameter for these studies is the lowest single dose that provides a cure to all 4 animals in the group.

The target of series [7] is T1, human liver cytochrome bc1 complex (Homo sapiens, UniProt P00156).
T1 construct: human host cytochrome bc1 complex isolated from human liver tissue; from tissue; host or cells: human liver tissue
The settings on record: data taken from Nilsen et al., 2013 (a) or Frueh et al., 2017 (b); cited from earlier work.

Series [8] deals with T2, P. falciparum cytochrome bc1 complex (Plasmodium falciparum, UniProt Q02768).
T2 construct: endogenous in cells
T2 sequence (Q02768 1-376): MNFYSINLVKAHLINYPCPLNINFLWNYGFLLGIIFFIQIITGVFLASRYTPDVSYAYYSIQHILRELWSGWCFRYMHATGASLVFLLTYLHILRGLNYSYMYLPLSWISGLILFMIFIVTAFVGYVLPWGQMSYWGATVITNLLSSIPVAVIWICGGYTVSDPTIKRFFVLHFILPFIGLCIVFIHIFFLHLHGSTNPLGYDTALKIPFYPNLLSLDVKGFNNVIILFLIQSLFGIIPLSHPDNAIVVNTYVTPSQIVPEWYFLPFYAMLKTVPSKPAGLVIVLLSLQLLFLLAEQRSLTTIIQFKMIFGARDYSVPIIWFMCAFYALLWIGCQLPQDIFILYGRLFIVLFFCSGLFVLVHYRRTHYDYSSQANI
Particulars: data taken from Nilsen et al., 2013 (a) or Frueh et al., 2017 (b); cited from earlier work.

In series [9] the target is T2, P. falciparum cytochrome bc1 complex. Description: biochemical. Particulars: cytochrome bc1 activity from P. falciparum mitochondria. The source says:
Isolation of Plasmodium falciparum Mitochondria and Ubiquinol-Cytochrome c Oxidoreductase Assay.

Series [10] concerns the target T1, human liver cytochrome bc1 complex. In words: Inhibition of human cytochrome bc1 complex. The class given is biochemical. Particulars: complex isolated from human liver tissue. The text has this:
Human Cytochrome bc1 Assays.

Series [11] is described as follows: HepG2 cytotoxicity, TiterGlo ATP luminescence, galactose medium. The class given is cell-based, human. The settings on record: human; HepG2, galactose medium, 48 hours; read-out: EC50 (cytotoxicity). How it is done:
as §1

A short description of series [12]: Murine microsomal metabolic stability. Particulars: for half-life at 1 μM: pH 7.4, T1/2 (minutes).
Excerpt: Ketanserin served as an internal standard for the metabolic rate of a known drug with known intermediate stability.
Imipramine or Osalmid were used as internal standards, and ketanserin was used as a control drug with intermediate stability.
Setting [13] is: D6 strain, 72 h incubation, averages of quadruplicate with (95% confidence intervals).
Where [14] appears, read: Tm90-C2B strain, 72 h incubation, averages of quadruplicate with (95% confidence intervals).
[15] abbreviates: mouse, pooled liver microsomes, murine liver microsomes 0.5 mg/ml, 37° C., NADPH, 45 minutes.

pIC50: −log10 of the molar value. Like-named read-outs stand apart in the source and are kept apart here.

On to `C=C(C)[C@H]1Cc2c(ccc3c2O[C@@H]2COc4cc(OC)c(OC)cc4[C@@H]2C3=O)O1` [rotenone, reference compound], for which the “EC50 (cytotoxicity)” value with HepG2 cells (HepG2, galactose medium, 48 hours) was “quite cytotoxic”.

For `O=C1C(O)=C([C@H]2CC[C@H](c3ccc(Cl)cc3)CC2)C(=O)c2ccccc21` [Atovaquone, reference compound], the IC50 is 0.08 nM in [1] (setting [13]), 0.4 nM in series [2], above 1000 nM in series [3] (setting [14]) and 0.4 nM in [4]. For the same molecule, the “4-day Peters Test Results ED50” value in [5] came out at 0.1 mg/kg/day. Further, in [5], the “4-day Peters Test Results NRD (non-recrudescence dose)” value is recorded as 10 mg/kg/day. Moreover, in [6], the Single dose cure worked out at 10 mg/kg/day. For the same molecule, the pIC50 in series [7] is 6.34.

As for `CCOC(=O)OCOc1c(-c2ccc(Oc3ccc(OC(F)(F)F)cc3)cc2)c(C)nc2cc(OC)c(Cl)cc12` [ELQ-331, reference compound], the “4-day Peters Test Results ED90” value in series [5] is on record as 0.05 mg/kg/day. The “4-day Peters Test Results NRD (non-recrudescence dose)” value in series [5] is reported as 1.0 mg/kg/day. For the same molecule, the Single dose cure in series [6] is 3 mg/kg/day. Besides, the pIC50 in series [8] was 5.28; in series [7], below 5.00.

For `CCN(CC)CCCC(C)Nc1ccnc2cc(Cl)ccc12` (stereo not shown) [CQ, chloroquine, reference compound], the “4-day Peters Test Results NRD (non-recrudescence dose)” value in [5] was above 64 mg/kg/day. Moreover, the Single dose cure in series [6] is listed as above 64 mg/kg/day.

With `COc1cc2[nH]c(C)c(-c3ccc(-c4ccc(OC(F)(F)F)cc4)cc3)c(=O)c2cc1Cl` [ELQ-596, 6-chloro-7-methoxy-2-methyl-3-(4′-(trifluoromethoxy)-[1,1′-biphenyl]-4-yl)quinolin-4(1H)-one], the “improvement of IC50 values over ELQ-300” value in series [1] (D6 and Dd2 strains as well as C2B) is 8- to 10 fold. The half-inhibitory concentration (IC50) in series [1] (D6, 72 h) was 0.3 nM; in series [2], 0.4 nM; in series [3] (TM90, 72 h), 0.2 nM. In addition, the “4-day Peters Test Results ED50” value in [5] came to 0.01 mg/kg/day. For the same molecule, the “4-day Peters Test Results ED90” value in series [5] was 0.021 mg/kg/day. In series [5], the “4-day Peters Test Results NRD (non-recrudescence dose)” value was 0.3 mg/kg/day. Further, the pIC50 in series [9] is 10.00; in series [10] it was below 5.00. For the same molecule, in series [11], the EC50 at 48 h was above 10000 nM. In the series with HepG2 cells (medium with galactose instead of glucose), the EC50 is above 10000 nM. In addition, the CLint scaled at 1 μM in [12] (mouse, pooled liver microsomes, pH 7.4) worked out at 1.15 mL/min/kg. This molecule also yielded a half-life at 1 μM in [12] (setting [15]) above 66.7 h. Besides, the “T1/2 (minutes)” value in series [12] (murine liver microsomes 0.5 mg/ml, 37° C., NADPH, 45 minutes) is 4,260 minutes.

With `CCOC(=O)OCOc1c(-c2ccc(-c3ccc(OC(F)(F)F)cc3)cc2)c(C)nc2cc(OC)ccc12` [ELQ-695, Ethyl (((7-methoxy-2-methyl-3-(4′-(trifluoromethoxy)-[1,1′-biphenyl]-4-yl)quinolin-4-yl)oxy)methyl) carbonate], the concentration for half-maximal inhibition (IC50) turned out to be 20.9 nM in series [1] (setting [13]), 22.3 nM in series [2], 10.1 nM in series [3] (setting [14]) and 8.4 nM in [4]. For the same molecule, the “4-day Peters Test Results ED50” value in [5] is given as 0.2 mg/kg/day. In series [5], the “4-day Peters Test Results ED90” value is given as 0.3 mg/kg/day. Besides, in series [5], the “4-day Peters Test Results NRD (non-recrudescence dose)” value was determined as 3.7 mg/kg/day. The same molecule gave a half-life at 1 μM in [12] (setting [15]) above 66.7 h.

On to `COc1ccc2c(=O)c(-c3ccc(-c4ccc(OC(F)(F)F)cc4)cc3)c(C)[nH]c2c1` [ELQ-685, 7-Methoxy-2-methyl-3-(4′-(trifluoromethoxy)-[1,1′-biphenyl]-4-yl)quinolin-4(1H)-one], for which the 50% inhibitory concentration (IC50) in [1] (setting [13]) turned out to be 5.8 nM; in series [2] it was 8.5 nM; in series [3] (setting [14]), 5.2 nM; in [4] it was 3.5 nM. The half-life at 1 μM in [12] (setting [15]) is above 66.7 h.

For orientation: IC50 means the concentration at which inhibition is half-maximal. By pIC50 is commonly meant the IC50 on a negative log10 scale, so that one unit is a factor of ten. By EC50 is commonly meant the concentration giving half of the maximal effect. A word on the CLint scaled: it is the rate of metabolic loss divided by the concentration. As a reminder, the half-life is the time needed for the level to fall by half in the phase considered. A low value points to rapid decline.

These data come from US20250353828A1, “SUBSTITUTED BIARYL ENDOCHIN-LIKE QUINOLONES WITH ENHANCED ANTIPARASITIC ACTIVITY” (Oregon Health & Science University, priority 2022, published 2025).
